Experimental data as given in patent US20240284910A1, “HERBICIDAL COMPOSITIONS” (SYNGENTA CROP PROTECTION AG, priority 2021, published 2024).

How the values were obtained:
Assay type in all cases: in vivo
Settings in all cases: sprayed, evaluated after 13 days
[1] = tested on: Ipomoea hederacea (IPOHE); assay: Post-emergence glasshouse phytotoxicity test, IPOHE
Method: (§1) Seeds of Chenopodium album (CHEAL), Ipomoea hederacea (IPOHE), Amaranthus retroflexus (AMARE) and Abutilon threophrasti (ABUTH) and Stellaria media (STEME) were sown in standard sterilised soil in pots. After cultivation for 8 days under controlled conditions in a glasshouse (at 24/19° C., day/night; 16 hours light; no humidity control), the plants were sprayed at 500 I/Ha with an aqueous spray solution derived from the formulation of the technical active ingredients in a small amount of acetone and a solvent and emulsifier mixture referred to as IF50 (11.12% Emulsogen EL360 TM+44.44% N-methylpyrrolidone+44.44% Dowanol DPM glycol ether), to create a 50 g/l solution which was then diluted using 0.2% Genapol XO80 (CAS Number: 9043-30-5) as diluent to give the desired final dose of test compound. Where active ingredients were applied as mixtures, aqueous spray solutions were prepared as above, containing both active ingredients. The test plants were then grown under controlled conditions in a glasshouse (at 24/18° C., day/night; 15 hours light; 50% humidity) and watered twice daily. After 13 days, the test was evaluated visually for percentage phytotoxicity to the plants (where 100=total damage to plant; 0=no damage to plant) when compared to control untreated plants. Two to four replicates were applied for each treatment in a randomised block test design.
(§2) 22., E=X+Y−(X*Y/100), where • X=average percent phytotoxicity of herbicide A when applied at a certain rate • Y=average percent phytotoxicity using herbicide B when applied at a certain rate • E=the expected effect of the mixture of herbicides A and B as calculated from the Colby formula.

[2] = tested on: Amaranthus retroflexus (AMARE); assay: Post-emergence glasshouse phytotoxicity test, AMARE
Method: as §1, §2

[3] = tested on: Chenopodium album (CHEAL); assay: Post-emergence glasshouse phytotoxicity test, CHEAL
Method: as §1, §2

[4] = tested on: Abutilon threophrasti (ABUTH); assay: Post-emergence glasshouse phytotoxicity test, ABUTH
Method: as §1, with “Where active ingredients were applied as mixtures, aqueous spray solutions were prepared as above, containing both active ingredients. The test plants were then grown under controlled conditions in a glasshouse (at 24/18° C., day/night; 15 hours light; 50% humidity) and watered twice daily.” left out, “Two to four replicates were applied for each treatment in a randomised block test design.” left out
as §2

Stellaria media (STEME) = assay: Post-emergence glasshouse phytotoxicity test, STEME
Method: as §1, §2

| SMILES | Observed (O) percentage phytotoxicity ([1]; rate 6.25 g/ha) | Observed (O) percentage phytotoxicity ([1]; rate 12.5 g/ha) | Observed (O) percentage phytotoxicity ([2]; rate 6.25 g/ha) | Observed (O) percentage phytotoxicity ([2]; rate 25 g/ha) | Observed (O) percentage phytotoxicity ([3]; rate 6.25 g/ha) | Observed (O) percentage phytotoxicity ([3]; rate 12.5 g/ha) | Observed (O) percentage phytotoxicity ([4]; rate 12.5 g/ha) | Observed (O) percentage phytotoxicity (Stellaria media (STEME); rate 6.25 g/ha) | Observed (O) percentage phytotoxicity (Stellaria media (STEME); rate 12.5 g/ha, 100=total damage, 0=no damage) | Observed (O) percentage phytotoxicity ([1]; rate 0.16 g/ha) | Observed (O) percentage phytotoxicity ([2]; rate 0.31 g/ha) | Observed (O) percentage phytotoxicity ([3]; rate 0.31 g/ha) | Observed (O) percentage phytotoxicity ([4]; rate 0.31 g/ha) | Observed (O) percentage phytotoxicity (Stellaria media (STEME); rate 0.16 g/ha) | Observed (O) percentage phytotoxicity (Stellaria media (STEME); rate 0.31 g/ha) |
| --- | --- | --- | --- | --- | --- | --- | --- | --- | --- | --- | --- | --- | --- | --- | --- |
| CN1C[C@H](c2cccc(C(F)(F)F)c2)[C@@H](C(=O)Nc2ccccc2F)C1=O [I-A] | 25% | 38% | 0% | 8% | 0% | 28% | 10% | 33% | 58% |  |  |  |  |  |  |
| Cc1nnc(NC(=O)c2ccc(C(F)(F)F)n3c(CS(=O)(=O)C(C)C)nnc23)o1 [II] |  |  |  |  |  |  |  |  |  | 4% | 5% | 24% | 34% | 13% | 6% |
